In one assay the target is BRD4-BD2 (Homo sapiens (Human), UniProt O60885). Description: BRD4 AlphaScreen assay, BRD4-BD2. Format: binding. To be noted: biotin-labeled tetra-acetylated histone H4 peptide, 75 min, room temperature, read-out: BRD4 BD-2 enzyme IC50. Put shortly: (§1)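 Displacement of 50 nM biotinylated tetra-acetylated H4 peptide (H4Ac4) from BRD4-BD1 (3.8 nM) or BRD4-BD2 (20 nM) in HEPES pH 7.4, 100 mM NaCl, CHAPS, BSA; 75 min at room temperature. Streptavidin donor/GSH acceptor beads were added for a further 75 min in the dark; IC50 from percent control activity versus log concentration.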
Background: In Alpha technology, singlet oxygen from a donor bead excites a nearby acceptor bead.

The target in another assay is BRD4-BD1 (Homo sapiens (Human), UniProt O60885). Nature of the assay: BRD4 AlphaScreen assay, BRD4-BD1. Format: binding. To be noted: biotin-labeled tetra-acetylated histone H4 peptide, 75 min, room temperature, read-out: BRD4 BD-1 enzyme IC50. Put shortly:
as §1

Structures can show the parent of a compound that is named as a salt.

Consider `CCNC(=O)c1cc2c(ccc3nnc(C)n32)n1Cc1cccc(C(F)(F)F)c1` [Example 137, N-Ethyl-1-methyl-6-[3-(trifluoromethyl)benzyl]-6H-pyrrolo[2,3-e][1,2,4]triazolo[4,3-a]pyridine-7-carboxamide Trifluoroacetate Salt], for which the half-inhibitory concentration (IC50) at BRD4-BD2 and on BRD4-BD1 was no more than 100 nM throughout.

With `Cc1nnc2ccc3c(cc(C(F)(F)F)n3Cc3ccccc3)n12` [Example 138, 6-Benzyl-1-methyl-7-(trifluoromethyl)-6H-pyrrolo[2,3-e][1,2,4]triazolo[4,3-a]pyridine Trifluoroacetate Salt], the IC50 on BRD4-BD2 and at BRD4-BD1 was 100 to 1000 nM throughout.

In the case of `CNC(=O)Nc1cc2c(cc(C)n2Cc2cc(Cl)cc(CN3CCCC3)c2)n2c(C)nnc12` [Example 142, N-{6-[3-Chloro-5-(pyrrolidin-1-ylmethyl)benzyl]-1,7-dimethyl-6H-pyrrolo[2,3-e][1,2,4]triazolo[4,3-a]pyridin-4-yl}-N′-methylurea bis(trifluoroacetate) Salt], the IC50 at BRD4-BD2 and on BRD4-BD1 was no more than 100 nM throughout.

Consider `Cc1nnc2ccc3c(cc(-c4ncco4)n3Cc3ccccc3)n12` [Example 143, 6-benzyl-1-methyl-7-(1,3-oxazol-2-yl)-6H-pyrrolo[2,3-e][1,2,4]triazolo[4,3-a]pyridine Trifluoroacetate Salt], for which the IC50 on BRD4-BD2 and on BRD4-BD1 was no more than 100 nM each time.

Regarding `Cc1cc2c(cc(NC3CCOCC3)c3nnc(C)n32)n1Cc1ccccc1` [Example 146, 6-benzyl-1,7-dimethyl-N-(tetrahydro-2H-pyran-4-yl)-6H-pyrrolo[2,3-e][1,2,4]triazolo[4,3-a]pyridin-4-amine], the IC50 at BRD4-BD2 and on BRD4-BD1 was no more than 100 nM each time.

Turning to `Cc1cc2c(cc(N[C@@H]3CCOC3)c3nnc(C)n32)n1Cc1ccccc1` [Example 147, 6-benzyl-1,7-dimethyl-N-[(3R)-tetrahydrofuran-3-yl]-6H-pyrrolo[2,3-e][1,2,4]triazolo[4,3-a]pyridin-4-amine], the IC50 at BRD4-BD2 and at BRD4-BD1 was no more than 100 nM in each case.

Take `Cc1cc2c(cc(N[C@H]3CCOC3)c3nnc(C)n32)n1Cc1ccccc1` [Example 148, 6-benzyl-1,7-dimethyl-N-[(3S)-tetrahydrofuran-3-yl]-6H-pyrrolo[2,3-e][1,2,4]triazolo[4,3-a]pyridin-4-amine]: the IC50 at BRD4-BD2 and at BRD4-BD1 was no more than 100 nM each time.

As to `Cc1cc2c(cc(N[C@@H]3CCN(C(=O)OC(C)(C)C)C3)c3nnc(C)n32)n1Cc1ccccc1` [Example 149, tert-butyl (3R)-3-[(6-benzyl-1,7-dimethyl-6H-pyrrolo[2,3-e][1,2,4]triazolo[4,3-a]pyridin-4-yl)amino]pyrrolidine-1-carboxylate], the IC50 at BRD4-BD2 is no more than 100 nM; on BRD4-BD1 it was 100 to 1000 nM.

`Cc1cc2c(cc(N[C@H]3CCN(C(=O)OC(C)(C)C)C3)c3nnc(C)n32)n1Cc1ccccc1` [Example 150, tert-butyl (3S)-3-[(6-benzyl-1,7-dimethyl-6H-pyrrolo[2,3-e][1,2,4]triazolo[4,3-a]pyridin-4-yl)amino]pyrrolidine-1-carboxylate]: the IC50 at BRD4-BD2 and on BRD4-BD1 was no more than 100 nM throughout.

Consider `Cc1cc2c(cc(N[C@@H]3CCNC3)c3nnc(C)n32)n1Cc1ccccc1` [Example 151, 6-benzyl-1,7-dimethyl-N-[(3R)-pyrrolidin-3-yl]-6H-pyrrolo[2,3-e][1,2,4]triazolo[4,3-a]pyridin-4-amine bis(trifluoroacetate) Salt], for which the IC50 on BRD4-BD2 and on BRD4-BD1 was no more than 100 nM in each case.

In the case of `Cc1cc2c(cc(N[C@H]3CCNC3)c3nnc(C)n32)n1Cc1ccccc1` [Example 152, 6-benzyl-1,7-dimethyl-N-[(3S)-pyrrolidin-3-yl]-6H-pyrrolo[2,3-e][1,2,4]triazolo[4,3-a]pyridin-4-amine bis(trifluoroacetate) Salt], the IC50 on BRD4-BD2 and at BRD4-BD1 was no more than 100 nM in each case.

In the case of `Cc1cc2c(cc(NC3CCN(C)CC3)c3nnc(C)n32)n1Cc1ccccn1` [Example 153, 1,7-dimethyl-N-(1-methylpiperidin-4-yl)-6-(pyridin-2-ylmethyl)-6H-pyrrolo[2,3-e][1,2,4]triazolo[4,3-a]pyridin-4-amine], the IC50 at BRD4-BD2 and at BRD4-BD1 was no more than 100 nM each time.

In the case of `Cc1cc2c(cc(NC3CCN(C)CC3)c3nnc(C)n32)n1Cc1cccnc1` [Example 154, 1,7-dimethyl-N-(1-methylpiperidin-4-yl)-6-(pyridin-3-ylmethyl)-6H-pyrrolo[2,3-e][1,2,4]triazolo[4,3-a]pyridin-4-amine], the IC50 at BRD4-BD2 and at BRD4-BD1 was no more than 100 nM throughout.

Take `Cc1nnc2ccc3c(cc(-c4ccn[nH]4)n3Cc3cccc(Cl)c3)n12` [Example 155, 6-(3-chlorobenzyl)-1-methyl-7-(1H-pyrazol-5-yl)-6H-pyrrolo[2,3-e][1,2,4]triazolo[4,3-a]pyridine bis(trifluoroacetate) Salt]: the IC50 on BRD4-BD2 and on BRD4-BD1 was no more than 100 nM throughout.

As for `CCN1CC(CC#N)(n2ccc(-c3cc4c(ccc5nnc(C)n54)n3Cc3cccc(Cl)c3)n2)C1` [Example 158, (3-{3-[6-(3-Chlorobenzyl)-1-methyl-6H-pyrrolo[2,3-e][1,2,4]triazolo[4,3-a]pyridin-7-yl]-1H-pyrazol-1-yl}-1-ethylazetidin-3-yl)acetonitrile bis(trifluoroacetate) Salt], the IC50 at BRD4-BD2 and on BRD4-BD1 was no more than 100 nM throughout.

In the case of `CCN1CC(n2ccc(-c3cc4c(ccc5nnc(C)n54)n3Cc3cccc(Cl)c3)n2)C1` [Example 160, 6-(3-Chlorobenzyl)-7-[1-(1-ethylazetidin-3-yl)-1H-pyrazol-3-yl]-1-methyl-6H-pyrrolo[2,3-e][1,2,4]triazolo[4,3-a]pyridine bis(trifluoroacetate) Salt], the IC50 at BRD4-BD2 and on BRD4-BD1 was no more than 100 nM throughout.

`Cc1nnc2ccc3c(cc(-c4ccn(C5CN(S(=O)(=O)N(C)C)C5)n4)n3Cc3cccc(Cl)c3)n12` [Example 161, 3-{3-[6-(3-Chlorobenzyl)-1-methyl-6H-pyrrolo[2,3-e][1,2,4]triazolo[4,3-a]pyridin-7-yl]-1H-pyrazol-1-yl}-N,N-dimethylazetidine-1-sulfonamide bis(trifluoroacetate) Salt]: the concentration for half-maximal inhibition (IC50) at BRD4-BD2 and on BRD4-BD1 was no more than 100 nM each time.

Regarding `Cc1nnc2ccc3c(cc(-c4ccn(C5CN(C(=O)CN(C)C)C5)n4)n3Cc3cccc(Cl)c3)n12` [Example 162, 2-(3-{3-[6-(3-Chlorobenzyl)-1-methyl-6H-pyrrolo[2,3-e][1,2,4]triazolo[4,3-a]pyridin-7-yl]-1H-pyrazol-1-yl}azetidin-1-yl)-N,N-dimethyl-2-oxoethanamine bis(trifluoroacetate) Salt], the IC50 on BRD4-BD2 and on BRD4-BD1 was no more than 100 nM each time.

Take `CCC(=O)N1CC(n2ccc(-c3cc4c(ccc5nnc(C)n54)n3Cc3cccc(Cl)c3)n2)C1` [Example 163, 6-(3-Chlorobenzyl)-1-methyl-7-[1-(1-propionylazetidin-3-yl)-1H-pyrazol-3-yl]-6H-pyrrolo[2,3-e][1,2,4]triazolo[4,3-a]pyridine Trifluoroacetate Salt]: the IC50 at BRD4-BD2 and at BRD4-BD1 was no more than 100 nM throughout.

A word on the IC50: it is the point on the concentration scale where inhibition reaches its midpoint.
